Test results as given in patent US11464751B2, “Use of fluoroethylnormemantine for the prevention and treatment of anxiety” (REST THERAPEUTICS, priority 2017, dated 2022).

Key:
Assay type in all cases: in vivo, rat
[1] = test system: naive rats (Wistar); assay: Light-dark box test
Protocol: (§1) In the following examples, the effects of memantine, propranolol and fluoroethylnormemantine (FENM, the subject of the present invention) are studied in naive rats (Wistar) subjected to various tests related to depression or anxiety and then compared.
(§2) The test substances are administered to rats intraperitoneally in a volume of 5 ml/kg, 30 minutes before the behavioral tests are performed.
(§3) The injected solutions contain either of the molecules in the form of one of their salts, a hydrochloride (memantine·HCl and FENM·HCl) for the nitrogen derivatives and as such for propranolol, at the concentrations indicated below in a mixture of 95% (NaCl 0.9% ww in water)/5% ethanol. In each experiment, the dose per kilogram is referenced.
For each paradigm, and each solution tested, 12 rats are subjected to injection and behavioral testing. The control solution is a saline solution.
In this example the light-dark box test was used. As it is based on rodents' innate aversion to light, the increase in time spent in the lighted compartment is therefore considered to reflect a lower level of anxiety.
The box used for this test is divided into a white behavior with high-power illumination (600 lux) and a black behavior with a lid (about 5 lux). The number of entries and the time spent in the illuminated compartment (anxiety zone) are recorded for 10 minutes by a video monitoring system. In addition, the system makes it possible to differentiate the periods between 0 and 5 minutes and between 5 and 10 minutes.

[2] = test system: naive rats (Wistar); assay: Fear conditioning + extinction + stabilization (PTSD model)
Source text: Several animal models have been developed to mimic the traumatic events that induce intense and recurrent fear symptoms characteristic of PTSD. • Pavlovian fear conditioning of the animals: This animal model consists of Pavlovian-type fear conditioning (Zovkic, Neuropsychopharmacology Reviews (2013) 38, 77-93): mice (or rats) are trained to associate exposure to danger (electric shock, etc.) with the presence of a specific cue or environment (sound cue for example). The memory of this association (danger-cue) is later tested by measuring tetany behavior (through fear) when the animal is re-exposed to the conditioning cue in the absence of real danger.
Again, the occurrence of symptoms of PTSD are assessed after a certain period of time, without exposure to the hazard, to simulate the long-term onset of PTSD pathology. • Fear extinction: After a fear conditioning as described above it can be of interest to apply a protocol to extinguish this fear. Classically, this phase is placed 24 hours after the conditioning phase.
The extinction protocols model the relearning of the normal (non-fear-motivated) response to the cue (sound) and are very useful in modeling PTSD. • Fear stabilization: It can be useful, to assess the performance of a treatment, to add a stabilization phase after the extinction phase, spaced 24 h apart. Typically, this phase puts the animals back under the extinction phase conditions. It then allows the detection of staggered performances of the treatments, but also of the resurgence of tetany (rebound effect).
as §1, §2, §3
The applicant used a fear conditioning test in which the clue (neutral conditional stimulus) is a sound, coupled with a danger (aversive unconditional stimulus) which is an electric shock delivered by the floor of the box. This conditioning is followed by a fear extinction phase with injection of the treatment solutions to be tested and then by a test phase itself. • Fear Conditioning Phase (FC): fear conditioning takes place in a standard conditioning box (context A, white box in Table 7) and the rats (8 per group) are subjected to 3 “sound-electroshock” pairs at times of 180 s, 381 s and 582 s after being placed in the box. Each sound lasts 20 s and each electroshock lasts 1 s with a current of 1 mA. • The fear extinction phase (Ext.) is conducted as follows: the rats are placed in a box similar to the one that will be used for the final test (context B, pink box in Table 7), for a 25-minute session. During this session, 24 presentations are made with the same sound as that used during the conditioning session (20 s each, 35 s apart). Of course, no electric shock is delivered, and the percentage of time of tetany (“freezing”) during the phase is recorded. • Stabilization phase: the day after the extinction phase, 30 minutes before the test phase, […] of 3 sounds (same sequence as used for conditioning), recording the percentage of time they remain still during this test phase. […]

[3] = test system: naive rats (Wistar); assay: Forced swimming test; conditions: for Rat behavior over the period of time 1 to 6 minutes: frenetic movement / Rat behavior over the period of time 1 to 6 minutes: immobility (ies): second day, 30 min before; for Rat behavior over the period of time 1 to 6 minutes: immobility (ies): in s; for immobility time compared with control: all dose levels, particularly 10 mg/kg, p<0.001
Protocol: • the forced swimming test: This test has been used for a number of years with rats or mice to test the activity of antidepressants (F. Borsini, Psychopharmacology (1988) 94:147-160) and consists of placing the animal in a bowl filled with room-temperature water. After 15 minutes (pre-test session), the animal is taken out of the water and dried. Twenty-four hours later, the animal is again exposed to the previous conditions and the time of total immobility for a period of 5 minutes is recorded (test session). The animal is considered immobile when it performs only the movements necessary to keep its head out of the water. This immobility is easier to assess in rats than in mice, which have less explicit movements.
as §1, §2, §3
In the forced swimming test, rats (12 per group) are forced to swim in a tank filled with 23° C. water (10 minutes on the first day to allow for habituation to the medium and 6 minutes on the second day).
The behavior of the rats (stopping swimming, decreasing activity) is quantified by a video monitoring system.
The therapeutic solutions to be tested are administered on the second day 30 minutes before the experiment.

In the case of `NC12CC3CC(C1)CC(CCF)(C3)C2`, the “Time spent in the lighted compartment” value ([1]; 1 mg/kg i.p., 0-5 min) is reported as 42.4 s, the “Time spent in the lighted compartment” value ([1]; 1 mg/kg i.p., 0-10 min) is reported as 71.0 s and the “Time spent in the lighted compartment” value ([1]; 1 mg/kg i.p., 5-10 min) is reported as 28.6 s. For the same molecule, the “Time spent in the lighted compartment” value ([1]; 3 mg/kg i.p., 0-5 min) was 34.4 s, the “Time spent in the lighted compartment” value ([1]; 3 mg/kg i.p., 0-10 min) was 67.5 s and the “Time spent in the lighted compartment” value ([1]; 3 mg/kg i.p., 5-10 min) was 33.2 s. For the same molecule, the “Time spent in the lighted compartment” value ([1]; 10 mg/kg i.p., 0-5 min) was 96.8 s, the “Time spent in the lighted compartment” value ([1]; 10 mg/kg i.p., 0-10 min) was 171.9 s and the “Time spent in the lighted compartment” value ([1]; 10 mg/kg i.p., 5-10 min) was 75.0 s. The “time spent in the lighted compartment compared with the control” value ([1]; 10 mg/kg, Student's t-test p<0.01) was “large and significant increase”, the “Percentage of time of tetany (freezing) during the stabilization phase” value ([2]; 5 mg/kg, Early treatment: one injection 30 minutes before the extinction phase) was 21% and the “Percentage of time of tetany (freezing) during the stabilization phase” value ([2]; 5 mg/kg, Late treatment: one injection 30 minutes before the stabilization phase) was 26%. The “Percentage of time of tetany (freezing) during the stabilization phase” value ([2]; 5 mg/kg, Protective effect: one injection 30 minutes before the conditioning phase) was 23%, the “Percentage of time of tetany (freezing) during the stabilization phase” value ([2]; 10 mg/kg, Early treatment: one injection 30 minutes before the extinction phase) was 25% and the “Percentage of time of tetany (freezing) during the stabilization phase” value ([2]; 10 mg/kg, Late treatment: one injection 30 minutes before the stabilization phase) was 4%. The “Percentage of time of tetany (freezing) during the stabilization phase” value ([2]; 10 mg/kg, Protective effect: one injection 30 minutes before the conditioning phase) was 6%, the “Percentage of time of tetany (freezing) during the stabilization phase” value ([2]; 20 mg/kg, Early treatment: one injection 30 minutes before the extinction phase) was 6% and the “Percentage of time of tetany (freezing) during the stabilization phase” value ([2]; 20 mg/kg, Late treatment: one injection 30 minutes before the stabilization phase) was 2%. The “Percentage of time of tetany (freezing) during the stabilization phase” value ([2]; 20 mg/kg, Protective effect: one injection 30 minutes before the conditioning phase) was 2%, the “tetany in the stabilization phase compared with control” value ([2]; administered at conditioning, early or late post-traumatic treatment) was “virtually eliminate” and the “Rat behavior over the period of time 1 to 6 minutes: frenetic movement” value (“Rat behavior over the period … frenetic movement” below) ([3]; 1 mg/kg i.p.) was 43.2 s. For the same molecule, the “Rat behavior over the period of time 1 to 6 minutes: immobility (ies)” value (shortened to “Rat behavior over the period … (ies)”) ([3]; 1 mg/kg i.p.) was 157.8, the “Rat behavior over the period … frenetic movement” value ([3]; 3 mg/kg i.p.) was 47.6 s and the “Rat behavior over the period … (ies)” value ([3]; 3 mg/kg i.p.) was 164.3. The “Rat behavior over the period … frenetic movement” value ([3]; 10 mg/kg i.p.) was 60.6 s, the “Rat behavior over the period … (ies)” value ([3]; 10 mg/kg i.p.) was 140.5 and the “immobility time compared with control” value [3] was “very significant (p<0.001) decrease”.

With `CC12CC3CC(C)(C1)CC(N)(C3)C2` [Memantine, memantine] the “Time spent in the lighted compartment” value ([1]; 1 mg/kg i.p., 0-5 min) was 34.2 s, the “Time spent in the lighted compartment” value ([1]; 1 mg/kg i.p., 0-10 min) was 59.9 s and the “Time spent in the lighted compartment” value ([1]; 1 mg/kg i.p., 5-10 min) was 25.7 s. For the same molecule, the “Time spent in the lighted compartment” value ([1]; 3 mg/kg i.p., 0-5 min) was 26.2 s, the “Time spent in the lighted compartment” value ([1]; 3 mg/kg i.p., 0-10 min) was 34.3 s and the “Time spent in the lighted compartment” value ([1]; 3 mg/kg i.p., 5-10 min) was 8.1 s. For the same molecule, the “Time spent in the lighted compartment” value ([1]; 10 mg/kg i.p., 0-5 min) was 31.0 s, the “Time spent in the lighted compartment” value ([1]; 10 mg/kg i.p., 0-10 min) was 32.0 s and the “Time spent in the lighted compartment” value ([1]; 10 mg/kg i.p., 5-10 min) was 0.9 s. For the same molecule, the “time spent in the lighted compartment compared with the control” value ([1]; memantine 1, 3, 10 mg/kg) was “no effect was observed”, the “rebound effect (increased tetany) compared with control during the stabilization phase” value ([2]; 10 mg/kg administered during the extinction phase) was “+25%” and the “Rat behavior over the period … frenetic movement” value ([3]; 1 mg/kg i.p.) was 55.1 s. The “Rat behavior over the period … (ies)” value ([3]; 1 mg/kg i.p.) was 139.8, the “Rat behavior over the period … frenetic movement” value ([3]; 3 mg/kg i.p.) was 48.7 s and the “Rat behavior over the period … (ies)” value ([3]; 3 mg/kg i.p.) was 145.7. For the same molecule, the “Rat behavior over the period … frenetic movement” value ([3]; 10 mg/kg i.p.) was 67.2 s, the “Rat behavior over the period … (ies)” value ([3]; 10 mg/kg i.p.) was 119.7 and the “immobility time compared with control” value [3] was “very significant (p<0.001) decrease”.
